The results in this text go back to publication PMC8506265 (Bioorganic & medicinal chemistry, 2021).

Broadly, the IC50 is the concentration that inhibits the measured activity by half.

Experiment [1] concerns the target T1, human CB1 (Homo sapiens, UniProt P21554). As to the kind of experiment: BRET CAMYEL cAMP assay in HEK293 3HA-hCB1 cells. Type of experiment: cell-based. (BRET reads energy transfer from a luciferase to a nearby fluorophore.)
For experiment [2], the target named is T1, human CB1. In kind it is biochemical. The following applies: operational model of allosterism; probe CP55,940.
For experiment [3], the target named is T1, human CB1. As to the kind of experiment: hCB1 calcium mobilization assay. (In general: Calcium assays in cells follow changes in intracellular calcium, usually with a dye or a luminescent sensor.)
Experiment [4] has as its target T1, human CB1. As to the kind of experiment: [35S]GTPγS binding assay, hCB1 HEK293 membranes. In kind it is biochemical. In general terms: GTPγS resists hydrolysis and so accumulates on activated G proteins.

T1 sequence (P21554 whole entry): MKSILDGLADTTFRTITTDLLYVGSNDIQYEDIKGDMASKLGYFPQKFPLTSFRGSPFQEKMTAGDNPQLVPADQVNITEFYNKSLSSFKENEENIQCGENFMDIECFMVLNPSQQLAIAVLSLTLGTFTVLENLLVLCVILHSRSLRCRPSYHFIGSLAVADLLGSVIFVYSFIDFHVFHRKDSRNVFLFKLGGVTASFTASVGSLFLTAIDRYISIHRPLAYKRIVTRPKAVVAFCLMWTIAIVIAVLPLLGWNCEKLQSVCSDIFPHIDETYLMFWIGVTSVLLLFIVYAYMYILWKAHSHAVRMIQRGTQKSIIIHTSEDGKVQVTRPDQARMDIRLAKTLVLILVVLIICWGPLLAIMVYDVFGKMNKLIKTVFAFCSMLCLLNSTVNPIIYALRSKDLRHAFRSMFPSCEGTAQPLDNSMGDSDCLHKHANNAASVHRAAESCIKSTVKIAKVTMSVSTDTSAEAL

As for `O=C(NCCc1ccccc1)Nc1ccc(Cl)cc1` [Compound 8, 3‐(4‐Chlorophenyl)‐1‐(2‐phenylethyl)urea], on human CB1 [1], the “potency in the cAMP assay” value is reported as “low micromolar range”.
Take `O=C(NCCc1ccc(N2CCCCC2)cc1)Nc1ccc(Cl)cc1` [Compound 9, 1-(4-Chlorophenyl)-3-{2-[4-(piperidin-1-yl)phenyl]ethyl}-urea]: on human CB1 [2], the “alpha (binding cooperativity)” value came out at 5.1, the “beta (modification of probe efficacy)” value came out at 0.09, the “logalpha (binding cooperativity)” value is recorded as 0.7 ± 0.1 and the “logbeta (modification of probe efficacy)” value is on record as −1.1 ± 0.1.
Take `CN(C)c1ccc(CCNC(=O)Nc2ccc(Cl)cc2)cc1` [Compound 12, 3‐(4‐Chlorophenyl)‐1‐{2‐[4‐(dimethylamino)phenyl]ethyl}-urea]: the “potency in the cAMP assay” value at human CB1 [1] is reported as “low micromolar range”.
For `O=C(NCc1ccccc1)Nc1ccc(Cl)cc1` [Compound 13, 3‐(4‐Chlorophenyl)‐1‐(3‐phenylmethyl)urea], the IC50 at human CB1 [3] was more than 10 µM.
Same read-out and setting: next, `CC(C)(CNC(=O)Nc1ccc(Cl)cc1)c1ccccc1` [Compound 15, 1-(4-Chlorophenyl)-3-(2-methyl-2-phenylpropyl)urea]: more than 10 µM; `CC(C)(Cc1ccccc1)NC(=O)Nc1ccc(Cl)cc1` [Compound 16, 1-(4-Chlorophenyl)-3-(2-methyl-1-phenylpropan-2-yl)urea]: more than 10 µM; `O=C(Nc1ccc(Cl)cc1)NC1(Cc2ccccc2)CC1` [Compound 19, 1-(1-Benzylcyclopropyl)-3-(4-chlorophenyl)urea]: more than 10 µM.
As to `O=C(NCCc1ccsc1)Nc1ccc(Cl)cc1` [Compound 24, 1-(4-Chlorophenyl)-3-[2-(thiophen-3-yl)ethyl]urea], the IC50 is 7.94 µM at human CB1 [4] and 1.58 µM at human CB1 [3].
As to `O=C(NCCc1cccs1)Nc1ccc(Cl)cc1` [Compound 25, 1-(4-Chlorophenyl)-3-[2-(thiophen-2-yl)ethyl]urea], the IC50 on human CB1 [4] was 7.94 µM; at human CB1 [3], 0.794 µM.
Consider `Cc1ccc(CCNC(=O)Nc2ccc(Cl)cc2)o1` [Compound 26, 1‐(4‐Chlorophenyl)‐3‐[2‐(5‐methylfuran‐2‐yl)ethyl]urea], for which the values for the IC50 on human CB1 [4], against human CB1 [1] and on human CB1 [3] were 12.6 µM, 3.98 µM and 0.251 µM, respectively. Further, the “potency in the cAMP assay” value at human CB1 [1] is “low micromolar range”.
